Patent publication US7615564B2, “Isoquinoline derivatives having kinasae inhibitory activity and drugs containing the same” (Kirin Beer Kabushiki Kaisha, priority 2002, dated 2009)
Marks after values point to notes of the source that are not given here.

Assays:
[1] = molecular target: T1, Recombinant Rho kinase (fused protein composed of bovine Rho kinase catalytic region and glutathione S-transferase) (Bos taurus, UniProt Q28021); assay: Rho kinase inhibitory activity (phosphorylation of S6 231-239 substrate with γ32P-ATP); format: biochemical; details: concentration inhibiting substrate phosphorylation by 50%
T1 construct: fused protein composed of bovine Rho kinase catalytic region and glutathione S-transferase; glutathione S-transferase (GST); made in house; host or cells: insect cells infected with baculovirus
T1 sequence (Q28021 92-354 limits assumed): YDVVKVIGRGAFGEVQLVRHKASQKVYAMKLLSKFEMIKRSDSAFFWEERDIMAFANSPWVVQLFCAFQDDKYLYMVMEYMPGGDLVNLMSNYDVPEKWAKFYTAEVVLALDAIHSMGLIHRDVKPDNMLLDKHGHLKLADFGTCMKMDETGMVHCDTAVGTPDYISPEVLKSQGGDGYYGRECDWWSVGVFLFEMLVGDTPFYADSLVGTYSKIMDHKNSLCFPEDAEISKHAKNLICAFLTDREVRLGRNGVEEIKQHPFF
Procedure: This permits the substrate to be labeled with the radioisotope.
Thereafter, the substrate was adsorbed to a filter paper. ATP was washed away with a phosphoric acid solution, and the amount of the phosphorylated substrate was then measured with a liquid scintillation counter.

[2] = test system: Mouse-derived CCR2 overexpressing human-derived histiocyte lymphoma (U937/CCR2); assay: Leukocyte migration inhibitory activity (MCP-1 induced migration, CHEMOTAXICELL); format: cell-based; details: U-937, test compound concentration 10 μg/ml, MCP-1 ligand, migration 1 hr
Procedure: Mouse-derived CCR2 overexpressing human-derived histiocyte lymphoma (U937/CCR2), was suspended in a 0.1% BSA-containing RPMI 1640 medium, to which a test compound had been added (5×10^6/ml), and the suspension was incubated for 20 min. A chemical solution (500 μl) (0.1% BSA-containing RPMI 1640 medium DMSO 1%), to which an MCP-1 ligand (1 μM) and the test compound had been added, was added to a 24-well plate. CHEMOTAXICELL was put thereon, and 200 μl of the cell suspension was added to the top layer, followed by migration under a 5% CO2 atmosphere at 37° C. for one hr. The number of cells, which had migrated to the lower chamber, was counted with a particle count analyzer (CDA-500, SYSMEX CORPORATION), and the percentage migration inhibition was calculated by the following equation: Migration inhibition (%)=(1−number of migrated cells in the presence of test compound/number of migrated cells in the absence of test compound)×100

[3] = molecular target: T2, Rho kinase (Bos taurus, UniProt Q28021); assay: Ex vivo experiment: Rho kinase inhibition by serum of orally dosed SD rats; format: in vivo, rat; details: hydrochloride 30 mg/kg oral, SD rats (N=4), serum diluted 8 times
T2 construct: fused protein composed of bovine Rho kinase catalytic region and glutathione S-transferase; glutathione S-transferase (GST); made in house; host or cells: insect cells infected with baculovirus
T2 sequence (Q28021 6-553 limits assumed): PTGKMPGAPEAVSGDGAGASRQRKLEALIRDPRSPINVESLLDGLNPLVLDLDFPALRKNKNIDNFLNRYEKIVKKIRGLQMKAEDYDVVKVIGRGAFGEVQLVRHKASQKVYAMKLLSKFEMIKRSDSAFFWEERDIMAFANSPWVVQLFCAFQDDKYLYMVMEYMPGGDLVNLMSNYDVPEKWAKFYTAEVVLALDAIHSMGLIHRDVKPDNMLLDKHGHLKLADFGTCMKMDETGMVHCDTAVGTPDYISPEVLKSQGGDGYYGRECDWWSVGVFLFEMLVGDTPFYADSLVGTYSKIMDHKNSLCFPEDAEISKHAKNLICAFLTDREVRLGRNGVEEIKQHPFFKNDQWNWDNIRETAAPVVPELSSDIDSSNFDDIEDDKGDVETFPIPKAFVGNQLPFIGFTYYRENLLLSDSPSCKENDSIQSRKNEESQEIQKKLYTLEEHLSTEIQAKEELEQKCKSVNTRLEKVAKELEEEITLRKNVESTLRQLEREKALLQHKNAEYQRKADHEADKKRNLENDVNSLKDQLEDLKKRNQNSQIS
Procedure: Water or a solution of a hydrochloride salt of a test compound (30 mg/kg) in physiological saline was orally administered to SD rats (N=4). […] The serum was diluted 8 times with physiological saline and was added to Rho kinase, substrate, and labeled ATP according to the method described in Pharmacological Test Example 1, and the amount of the phosphorylated substrate was determined. Rho kinase inhibition was calculated according to the following equation: Inhibition (%)=(1−amount of substrate in the case of test compound administration/amount of substrate in the case of water administration)×100

[4] = test system: Spontaneously hypertensive male rats (SHR); assay: Blood pressure depression activity in spontaneously hypertensive rats; format: in vivo, rat; details: hydrochloride 30 mg/kg oral; systolic pressure 3 to 4 hr after administration; ± standard error, four SHRs
Procedure: Spontaneously hypertensive male rats (SHR, Charles River Japan, Inc.) of 15 weeks old were provided. A solution of a hydrochloride of a compound of Example 45 or 46 (30 mg/kg) in purified water was orally administered to the rats. The systolic pressure of SHR was measured immediately before the administration of the test compound and 3 to 4 hr after the administration of the test compound. The percentage blood pressure depression was calculated by the following equation: Blood pressure depression (%)={(blood pressure before administration of test compound−blood pressure after administration of test compound)/blood pressure before administration of test compound}×100
The blood pressure depression was expressed in terms of the percentage blood pressure depression and the standard error for four SHRs.

[5] = test system: anti-GBM nephritis model using WKY rats; assay: Proteinuria amelioration activity for anti-GBM nephritis model using WKY rats; format: in vivo, rat; details: mean ± standard error, 6 rats; for Number of cells (ED-1 positive cells per glomerulus): hydrochloride 30 mg/kg oral twice a day, kidney four days after antibody
Procedure: An anti-GBM antibody produced by immunizing domestic rabbits with a rat-derived GBM fraction was caudointravenously administered to WKY male rats of 8 weeks old to induce nephritis. For 3 days from the time 24 hr after the administration of the antibody, a solution of each of the hydrochlorides prepared in Examples 45 and 46 in purified water was orally administered at a dose of 30 mg/kg twice a day. Three days after the administration of the antibody, twenty-four-hours urine was collected to determine the protein level of urine.
Four days after the administration of the antibody, the rats were sacrificed by exsanguination, and the kidney was then harvested and was fixed in 4% paraformaldehyde to prepare a specimen for staining. Next, the specimen thus obtained was immunostained using a mouse-anti-rat macrophage monoclonal antibody (ED-1). The number of ED-1 positive cells per glomerulus was counted.
Likewise, an anti-GBM antibody was caudointravenously administered to WKY male rats of 7 weeks old to induce nephritis. For 4 weeks from the time 24 hr after the administration of the antibody, a solution of the hydrochloride prepared in each of Examples 45 and 46 in purified water was orally administered at a dose of 30 mg/kg twice a day. Four weeks after the administration of the antibody, twenty-four-hours urine was collected to determine the protein level of urine.

[6] = hydrochloride 30 mg/kg oral twice a day for 4 weeks, 24-hr urine four weeks after antibody
[7] = hydrochloride 30 mg/kg oral twice a day for 3 days, 24-hr urine three days after antibody
[8] = blood collection 4 hr after administration

Row | Compound | IC50 [1] | inhibition at 10 µg/mL [2] | Inhibition (%) ([3]; blood collected 3 hr after administration) | Blood pressure depression (%) [4] | Protein level of urine [5, 6] | Protein level of urine [5, 7] | Number of cells (ED-1 positive cells per glomerulus) [5] | Inhibition (%) [3, 8]
1 | Nc1cccc(CN2CCC(Nc3cccc4cnccc34)C2)c1 (centres unmarked) [Example 17, N5-[1-(3-Aminobenzyl)tetrahydro-1H-3-pyrrolyl]-5-isoquinolylamine] | 280 nM | 94% | 57% | – | – | – | – | –
2 | Nc1cccc(CN2CC[C@H](Nc3cccc4cnccc34)C2)c1 [Example 45, (3S)-N5-[1-(3-Aminobenzyl)tetrahydro-1H-3-pyrrolyl]-5-isoquinolineamine] | 310 nM | 74% | – | 10.2 ± 3.1% | 779.4 ± 133.9 mg/kg, body weight | 91.2 ± 21.5 mg/kg, body weight | 2.20 ± 0.65 | 17* %
3 | Nc1cccc(CN2CC[C@@H](Nc3cccc4cnccc34)C2)c1 [Example 46, (3R)-N5-[1-(3-Aminobenzyl)tetrahydro-1H-3-pyrrolyl]-5-isoquinolineamine] | 23 nM | 104% | – | 25.1 ± 4.4% | 327.6 ± 55.2 mg/kg, body weight | 73.6 ± 9.1 mg/kg, body weight | 1.38 ± 0.68 | 42* %
